Results taken from patent US8604217B2, “Compound, a process for its preparation, a pharmaceutical composition, use of a compound, a method for modulating or regulating serine/threonine kinases and a serine/threonine kinases modulating agent” (Selvita S.A., priority 2009, dated 2013).

Legend:
Experiment in all cases: KinaseProfiler kinase panel
Assay type in all cases: biochemical
MKK7β(h) = MKK7β(h) (Homo sapiens (Human), UniProt O14733)
Tie2 (h) = Tie2 (h) (Homo sapiens (Human), UniProt Q02763)
GRK6(h) = GRK6(h) (Homo sapiens (Human), UniProt P43250)
PKCβII(h) = PKCβII(h) (Homo sapiens (Human), UniProt P05771)
CaMKIV(h) = CaMKIV(h) (Homo sapiens (Human), UniProt Q16566)
CaMKIV(h), sequence (Q16566 whole entry): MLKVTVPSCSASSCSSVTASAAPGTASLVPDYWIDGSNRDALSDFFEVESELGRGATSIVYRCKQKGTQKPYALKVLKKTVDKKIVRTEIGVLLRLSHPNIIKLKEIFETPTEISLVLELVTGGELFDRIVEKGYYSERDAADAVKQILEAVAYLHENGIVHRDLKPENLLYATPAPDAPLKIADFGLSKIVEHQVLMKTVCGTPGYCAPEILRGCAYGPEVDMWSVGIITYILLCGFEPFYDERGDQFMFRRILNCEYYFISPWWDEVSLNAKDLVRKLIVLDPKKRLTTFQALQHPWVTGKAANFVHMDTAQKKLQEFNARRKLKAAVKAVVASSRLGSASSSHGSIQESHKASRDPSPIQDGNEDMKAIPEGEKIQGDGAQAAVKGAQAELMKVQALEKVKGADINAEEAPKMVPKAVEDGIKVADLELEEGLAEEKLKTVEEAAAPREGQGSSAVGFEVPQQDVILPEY

JNK1α1(h) = JNK1α1(h) (Homo sapiens (Human), UniProt P45983)
EphA1(h) = EphA1(h) (Homo sapiens (Human), UniProt P21709)
EphA3(h) = EphA3(h) (Homo sapiens (Human), UniProt P29320)
PAK6(h) = PAK6(h) (Homo sapiens (Human), UniProt Q9NQU5)
EphB2(h) = EphB2(h) (Homo sapiens (Human), UniProt P29323)
FGFR2(N549H)(h) = FGFR2(N549H)(h) (Homo sapiens (Human), UniProt P21802, N549H)
NEK7(h) = NEK7(h) (Homo sapiens (Human), UniProt Q8TDX7)
JNK2α2(h) = JNK2α2(h) (Homo sapiens (Human), UniProt P45984)
Flt3(h) = Flt3(h) (Homo sapiens (Human), UniProt P36888)
DCAMKL2(h) = DCAMKL2(h) (Homo sapiens (Human), UniProt Q8N568)
Abl (H396P) (h) = Abl (H396P) (h) (Homo sapiens (Human), UniProt P00519, H396P)
CHK2(h) = CHK2(h) (Homo sapiens (Human), UniProt O96017)
Fms(h) = Fms(h) (Homo sapiens (Human), UniProt P07333)
Fms(h), sequence (P07333 20-972): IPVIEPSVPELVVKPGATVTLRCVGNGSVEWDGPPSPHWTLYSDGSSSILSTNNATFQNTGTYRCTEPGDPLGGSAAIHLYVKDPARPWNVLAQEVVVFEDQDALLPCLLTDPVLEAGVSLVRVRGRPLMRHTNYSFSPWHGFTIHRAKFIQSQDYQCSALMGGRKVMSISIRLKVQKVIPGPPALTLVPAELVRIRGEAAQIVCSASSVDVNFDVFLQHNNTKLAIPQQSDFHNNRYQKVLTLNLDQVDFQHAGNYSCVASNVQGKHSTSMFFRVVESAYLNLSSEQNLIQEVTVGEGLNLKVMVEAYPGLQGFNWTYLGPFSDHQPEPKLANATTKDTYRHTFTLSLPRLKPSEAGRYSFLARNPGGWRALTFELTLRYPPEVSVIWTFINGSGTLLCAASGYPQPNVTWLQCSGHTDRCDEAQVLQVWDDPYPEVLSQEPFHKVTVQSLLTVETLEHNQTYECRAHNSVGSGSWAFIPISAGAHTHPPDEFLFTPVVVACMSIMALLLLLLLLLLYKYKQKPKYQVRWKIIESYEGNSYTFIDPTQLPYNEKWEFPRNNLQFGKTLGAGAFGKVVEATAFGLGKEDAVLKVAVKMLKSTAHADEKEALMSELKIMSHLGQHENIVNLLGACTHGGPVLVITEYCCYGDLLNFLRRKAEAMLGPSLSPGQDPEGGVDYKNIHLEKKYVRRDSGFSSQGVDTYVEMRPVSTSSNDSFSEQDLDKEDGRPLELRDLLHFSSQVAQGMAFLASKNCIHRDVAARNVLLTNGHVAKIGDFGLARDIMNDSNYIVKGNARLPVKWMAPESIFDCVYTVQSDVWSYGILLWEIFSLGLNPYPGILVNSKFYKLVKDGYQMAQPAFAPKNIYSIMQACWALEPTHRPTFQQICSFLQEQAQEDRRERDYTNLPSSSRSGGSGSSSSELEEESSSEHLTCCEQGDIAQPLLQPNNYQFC

Plk3(h) = Plk3(h) (Homo sapiens (Human), UniProt Q9H4B4)
Plk3(h), sequence (Q9H4B4 whole entry): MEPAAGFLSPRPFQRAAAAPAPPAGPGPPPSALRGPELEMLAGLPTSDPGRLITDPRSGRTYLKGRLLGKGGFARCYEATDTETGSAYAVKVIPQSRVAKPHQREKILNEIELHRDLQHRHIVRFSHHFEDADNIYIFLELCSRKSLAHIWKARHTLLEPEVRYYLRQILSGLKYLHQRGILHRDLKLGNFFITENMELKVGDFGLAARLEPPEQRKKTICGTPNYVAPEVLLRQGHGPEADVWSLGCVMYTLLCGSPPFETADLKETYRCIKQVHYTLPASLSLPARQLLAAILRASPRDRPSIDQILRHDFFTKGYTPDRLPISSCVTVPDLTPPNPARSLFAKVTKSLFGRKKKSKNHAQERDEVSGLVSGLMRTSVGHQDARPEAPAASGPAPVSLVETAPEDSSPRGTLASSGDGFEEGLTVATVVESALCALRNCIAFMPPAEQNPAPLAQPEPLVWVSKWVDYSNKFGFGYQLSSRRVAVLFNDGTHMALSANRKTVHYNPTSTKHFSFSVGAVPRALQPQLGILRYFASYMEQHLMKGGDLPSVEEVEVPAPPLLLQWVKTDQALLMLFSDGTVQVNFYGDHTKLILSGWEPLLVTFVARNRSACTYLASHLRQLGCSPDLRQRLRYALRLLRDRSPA

EGFR(T790M)(h) = EGFR(T790M)(h) (Homo sapiens (Human), UniProt P00533, T790M)
AMPKα2(h) = AMPKα2(h) (Homo sapiens (Human), UniProt P54646)
cSRC(h) = cSRC(h) (Homo sapiens (Human), UniProt P12931)
Flt1(h) = Flt1(h) (Homo sapiens (Human), UniProt P17948)
PKBβ(h) = PKBβ(h) (Homo sapiens (Human), UniProt P31751)
PKBβ(h), sequence (P31751 whole entry): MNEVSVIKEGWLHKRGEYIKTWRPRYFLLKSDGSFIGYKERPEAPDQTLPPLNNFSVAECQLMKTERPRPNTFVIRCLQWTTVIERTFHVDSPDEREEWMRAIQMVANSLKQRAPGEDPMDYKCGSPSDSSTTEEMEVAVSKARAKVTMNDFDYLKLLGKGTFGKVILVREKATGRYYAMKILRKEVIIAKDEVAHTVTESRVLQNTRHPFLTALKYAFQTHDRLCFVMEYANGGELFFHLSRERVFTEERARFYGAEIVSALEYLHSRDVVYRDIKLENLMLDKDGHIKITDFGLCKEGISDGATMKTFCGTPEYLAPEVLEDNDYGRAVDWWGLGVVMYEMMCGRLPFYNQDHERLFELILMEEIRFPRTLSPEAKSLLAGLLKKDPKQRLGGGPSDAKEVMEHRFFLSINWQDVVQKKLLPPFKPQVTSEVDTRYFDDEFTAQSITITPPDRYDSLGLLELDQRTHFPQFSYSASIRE

SAPK2a(h) = SAPK2a(h) (Homo sapiens (Human), UniProt Q16539)
CDK5/p35(h) = CDK5/p35(h) (Homo sapiens (Human), UniProt Q00535)
Ros(h) = Ros(h) (Homo sapiens (Human), UniProt P08922)
MEK1(h) = MEK1(h) (Homo sapiens (Human), UniProt Q02750)
DRAK1(h) = DRAK1(h) (Homo sapiens (Human), UniProt Q9UEE5)
TGFBR1(h) = TGFBR1(h) (Homo sapiens (Human), UniProt P36897)
Ret(h) = Ret(h) (Homo sapiens (Human), UniProt P07949)
CaMKIIδ(h) = CaMKIIδ(h) (Homo sapiens (Human), UniProt Q13557)
CDK5/p25(h) = CDK5/p25(h) (Homo sapiens (Human), UniProt Q00535)
IR(h), activated = IR(h), activated (Homo sapiens (Human), UniProt P06213)
IR(h), activated, sequence (P06213 28-1382): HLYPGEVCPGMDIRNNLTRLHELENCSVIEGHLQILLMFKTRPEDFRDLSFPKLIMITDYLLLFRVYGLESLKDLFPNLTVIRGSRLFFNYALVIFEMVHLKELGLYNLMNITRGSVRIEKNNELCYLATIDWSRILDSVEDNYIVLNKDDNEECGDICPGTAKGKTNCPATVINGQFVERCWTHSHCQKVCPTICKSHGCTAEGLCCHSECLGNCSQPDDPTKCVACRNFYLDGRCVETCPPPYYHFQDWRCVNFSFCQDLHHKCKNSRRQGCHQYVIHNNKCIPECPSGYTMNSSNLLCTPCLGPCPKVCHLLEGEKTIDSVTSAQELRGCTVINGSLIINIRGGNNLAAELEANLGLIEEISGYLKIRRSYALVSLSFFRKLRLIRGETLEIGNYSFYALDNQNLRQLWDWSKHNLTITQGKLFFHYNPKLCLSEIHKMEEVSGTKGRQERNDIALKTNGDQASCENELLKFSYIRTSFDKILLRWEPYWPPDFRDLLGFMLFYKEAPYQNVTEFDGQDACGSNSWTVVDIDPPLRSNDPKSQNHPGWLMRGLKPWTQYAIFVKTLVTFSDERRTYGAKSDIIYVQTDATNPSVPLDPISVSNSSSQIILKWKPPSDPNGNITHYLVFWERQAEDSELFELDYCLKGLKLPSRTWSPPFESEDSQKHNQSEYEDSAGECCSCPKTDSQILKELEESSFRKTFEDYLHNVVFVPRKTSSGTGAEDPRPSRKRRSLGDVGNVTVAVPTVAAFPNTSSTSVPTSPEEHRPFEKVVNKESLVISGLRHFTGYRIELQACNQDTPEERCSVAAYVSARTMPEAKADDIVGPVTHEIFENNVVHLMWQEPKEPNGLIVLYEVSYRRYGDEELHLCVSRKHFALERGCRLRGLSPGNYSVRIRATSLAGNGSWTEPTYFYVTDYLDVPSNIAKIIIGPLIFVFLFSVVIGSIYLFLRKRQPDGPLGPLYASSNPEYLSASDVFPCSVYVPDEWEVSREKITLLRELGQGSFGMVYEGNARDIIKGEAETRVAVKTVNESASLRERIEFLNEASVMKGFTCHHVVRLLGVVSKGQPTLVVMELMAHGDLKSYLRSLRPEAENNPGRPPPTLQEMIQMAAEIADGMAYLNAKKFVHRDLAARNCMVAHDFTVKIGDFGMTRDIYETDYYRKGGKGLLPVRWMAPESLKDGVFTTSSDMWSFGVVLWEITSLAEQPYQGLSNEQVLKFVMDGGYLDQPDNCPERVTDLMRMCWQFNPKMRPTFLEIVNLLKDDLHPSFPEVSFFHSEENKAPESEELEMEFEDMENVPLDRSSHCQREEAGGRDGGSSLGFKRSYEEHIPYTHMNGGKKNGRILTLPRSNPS

ZAP-70(h) = ZAP-70(h) (Homo sapiens (Human), UniProt P43403)
STK33(h) = STK33(h) (Homo sapiens (Human), UniProt Q9BYT3)
Arg(m) = Arg(m) (Mus musculus (Mouse), UniProt Q4JIM5)
Arg(m), sequence (Q4JIM5 whole entry): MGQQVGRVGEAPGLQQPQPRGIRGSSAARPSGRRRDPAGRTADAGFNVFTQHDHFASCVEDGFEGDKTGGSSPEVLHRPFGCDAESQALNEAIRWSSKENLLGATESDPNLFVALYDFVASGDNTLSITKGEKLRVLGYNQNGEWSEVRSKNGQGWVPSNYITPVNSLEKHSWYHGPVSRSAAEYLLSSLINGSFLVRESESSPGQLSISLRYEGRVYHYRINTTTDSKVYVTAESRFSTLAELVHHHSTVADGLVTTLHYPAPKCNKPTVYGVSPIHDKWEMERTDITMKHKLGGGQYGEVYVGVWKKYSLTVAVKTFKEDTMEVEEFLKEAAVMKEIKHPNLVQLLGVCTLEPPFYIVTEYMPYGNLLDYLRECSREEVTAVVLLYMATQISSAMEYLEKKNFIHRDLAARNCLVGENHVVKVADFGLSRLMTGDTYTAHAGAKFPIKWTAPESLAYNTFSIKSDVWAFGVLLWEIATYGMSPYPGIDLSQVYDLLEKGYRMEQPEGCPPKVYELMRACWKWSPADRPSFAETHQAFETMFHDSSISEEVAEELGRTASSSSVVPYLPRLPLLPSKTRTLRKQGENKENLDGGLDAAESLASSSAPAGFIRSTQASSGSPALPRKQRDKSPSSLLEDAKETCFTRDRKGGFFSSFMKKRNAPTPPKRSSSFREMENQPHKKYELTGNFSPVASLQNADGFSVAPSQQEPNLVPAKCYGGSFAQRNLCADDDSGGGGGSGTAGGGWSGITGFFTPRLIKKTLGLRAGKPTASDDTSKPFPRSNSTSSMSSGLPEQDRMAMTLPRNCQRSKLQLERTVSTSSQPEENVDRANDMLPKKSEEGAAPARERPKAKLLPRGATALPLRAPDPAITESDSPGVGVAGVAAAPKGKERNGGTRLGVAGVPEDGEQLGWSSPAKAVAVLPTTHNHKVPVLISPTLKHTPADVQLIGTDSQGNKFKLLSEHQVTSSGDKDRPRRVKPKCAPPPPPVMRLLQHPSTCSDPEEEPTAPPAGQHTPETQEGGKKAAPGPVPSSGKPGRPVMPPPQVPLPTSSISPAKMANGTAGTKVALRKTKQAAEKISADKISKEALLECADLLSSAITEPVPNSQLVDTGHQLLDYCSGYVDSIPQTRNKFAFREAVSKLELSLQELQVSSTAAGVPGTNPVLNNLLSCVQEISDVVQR

NEK2(h) = NEK2(h) (Homo sapiens (Human), UniProt P51955)
Met(Y1248C)(h) = Met(Y1248C)(h) (Homo sapiens (Human), UniProt P08581, Y1248C)
GRK5(h) = GRK5(h) (Homo sapiens (Human), UniProt P34947)

remaining activity at 1 µM (MKK7β(h)): 95%
remaining activity at 1 µM (Tie2 (h)): 92%
remaining activity at 1 µM (GRK6(h)): 91%
remaining activity at 1 µM (PKCβII(h)): 98%
remaining activity at 1 µM (CaMKIV(h)): 85%
remaining activity at 1 µM (JNK1α1(h)): 97%
remaining activity at 1 µM (EphA1(h)): 75%
remaining activity at 1 µM (EphA3(h)): 94%
remaining activity at 1 µM (PAK6(h)): 85%
remaining activity at 1 µM (EphB2(h)): 106%
remaining activity at 1 µM (FGFR2(N549H)(h)): 101%
remaining activity at 1 µM (NEK7(h)): 115%
remaining activity at 1 µM (JNK2α2(h)): 100%
remaining activity at 1 µM (Flt3(h)): 0%
remaining activity at 1 µM (DCAMKL2(h)): 101%
remaining activity at 1 µM (Abl (H396P) (h)): 107%
remaining activity at 1 µM (CHK2(h)): 76%
remaining activity at 1 µM (Fms(h)): 72%
remaining activity at 1 µM (Plk3(h)): 101%
remaining activity at 1 µM (EGFR(T790M)(h)): 28%
remaining activity at 1 µM (AMPKα2(h)): 67%
remaining activity at 1 µM (cSRC(h)): 79%
remaining activity at 1 µM (Flt1(h)): 40%
remaining activity at 1 µM (PKBβ(h)): 90%
remaining activity at 1 µM (SAPK2a(h)): 99%
remaining activity at 1 µM (CDK5/p35(h)): 2%
remaining activity at 1 µM (Ros(h)): 104%
remaining activity at 1 µM (MEK1(h)): 73%
remaining activity at 1 µM (DRAK1(h)): 82%
remaining activity at 1 µM (TGFBR1(h)): 87%
remaining activity at 1 µM (Ret(h)): 27%
remaining activity at 1 µM (CaMKIIδ(h)): 28%
remaining activity at 1 µM (CDK5/p25(h)): 1%
remaining activity at 1 µM (IR(h), activated): 93%
remaining activity at 1 µM (ZAP-70(h)): 108%
remaining activity at 1 µM (STK33(h)): 66%
remaining activity at 1 µM (Arg(m)): 96%
remaining activity at 1 µM (NEK2(h)): 91%
remaining activity at 1 µM (Met(Y1248C)(h)): 73%
remaining activity at 1 µM (GRK5(h)): 96%
Structure (SMILES): CCn1c(N2CCNCC2)nc2c(Br)c(Br)c(Br)c(Br)c21 [Compound 416, 4,5,6,7-tetrabromo-1-ethyl-2-(piperazin-1-yl)-1H-benzo[d]imidazole]
